Experimental data as given in paper PMC13502167, “Ampyrone is a direct agonist of human tyrosinase and a potential therapeutic for hypopigmentation disorders” (JCI Insight, 2026).
Positions count from the first letter of the chain named. pEC50, pIC50: −log10 of the molar value. Read-outs that look alike come from different tables or passages of the source.

Tests used:
[1] = target: T1, human tyrosinase (hTYR^WT) (Homo sapiens, UniProt P14679); experiment: biochemical
T1 construct: gene TYR
T1 sequence (P14679 19-469): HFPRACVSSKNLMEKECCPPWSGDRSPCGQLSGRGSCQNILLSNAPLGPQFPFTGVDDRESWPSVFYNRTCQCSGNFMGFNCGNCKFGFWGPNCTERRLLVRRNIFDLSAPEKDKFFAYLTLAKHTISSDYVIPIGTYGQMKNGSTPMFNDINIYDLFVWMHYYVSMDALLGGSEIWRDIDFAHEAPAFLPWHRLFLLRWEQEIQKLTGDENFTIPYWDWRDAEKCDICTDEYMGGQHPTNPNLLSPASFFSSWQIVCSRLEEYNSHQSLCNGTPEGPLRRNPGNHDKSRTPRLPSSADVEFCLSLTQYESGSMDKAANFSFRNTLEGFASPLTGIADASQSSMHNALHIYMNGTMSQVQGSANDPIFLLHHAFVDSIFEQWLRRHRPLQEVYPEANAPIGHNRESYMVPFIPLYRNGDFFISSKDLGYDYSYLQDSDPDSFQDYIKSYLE

[2] = target: T1, human tyrosinase (hTYR^WT); experiment: activation of diphenol oxidase and monophenolase activity of purified enzyme; urea denaturation; type: biochemical
[3] = target: T2, human tyrosinase (hTYR^P406L) (Homo sapiens, UniProt P14679, P406L); experiment: activation of diphenol oxidase and monophenolase activity of purified enzyme; type: biochemical
T2 construct: gene TYR; recombinant intramelanosomal domain, P406L variant, His-tag
T2 sequence (P14679 19-469 P406L): T1 sequence (P14679 19-469) with P388L

| pIC50 ([1]; read-out: IC50) | Compound | also measured |
| --- | --- | --- |
| 5.04 | O=c1cc(-c2ccc(O)c(O)c2)oc2ccccc12 [3’,4’-dihydroxyflavone] |  |
| 5.49 | Oc1ccc(Nc2ccccc2)cc1 [4-anilinophenol] |  |
| 3.27 | Nc1nc2nc[nH]c2c(=S)[nH]1 [6-thioguanine] |  |
|  | Cc1c(N)c(=O)n(-c2ccccc2)n1C [ampyrone, 4-Amino-2,3-dimethyl-1-phenyl-3-pyrazol-5-one] | pEC50 [2]: 3.17; pEC50 [3]: 2.45 |
| 5.84 | COc1ccc(-c2cc(=S)ss2)cc1 [anethole trithione] |  |
| 5.09 | CN(C)c1ccc(N=NS(=O)(=O)O)cc1 [fenaminosulf] |  |
|  | Oc1ccc(C2=Cc3ccc(O)cc3OC2)cc1 [idronoxil] | pIC50 [1]: 4.54 |
